Measured values reported in patent publication US8076487B2, “Pyridone derivative and herbicide” (Kumiai Chemical Industry Co., Ltd., priority 2006, dated 2011).

Assays:
Format in all cases: in vivo
[1] = system: barnyardgrass (Echinochloa crus-galli (L.) P. Beauv. var. crus-galli); assay: Test Example 3: herbicidal effect by application to upland field (foliage treatment); settings: 14th day after application; for herbicidal effect (index), Barnyardgrass: foliage treatment, plants grown two weeks, 1,000 g active ingredient per hectare; for herbicidal effect, Barnyardgrass: foliage treatment, 1,000 g active ingredient per 1 hectare, greenhouse
Method in brief: (§1)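 A single foliar application of a water-diluted wettable powder, at 1,000 g of active ingredient per hectare, was made to plants raised for two weeks from seed in field soil. Herbicidal activity was judged visually after a further 14 days in the greenhouse.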

[2] = system: slender amaranth (Amaranthus viridis L.); assay: as above; settings: 14th day after application; for herbicidal effect (index), Slender Amaranth: foliage treatment, plants grown two weeks, 1,000 g active ingredient per hectare; for herbicidal effect, Slender Amaranth: foliage treatment, 1,000 g active ingredient per 1 hectare, greenhouse
Method in brief: as §1

[3] = system: green foxtail (Setaria viridis (L.) P. Beauv.); assay: as above; settings: 14th day after application; for herbicidal effect (index), Green Foxtail: foliage treatment, plants grown two weeks, 1,000 g active ingredient per hectare; for herbicidal effect, Green Foxtail: foliage treatment, 1,000 g active ingredient per 1 hectare, greenhouse
Method in brief: as §1

[4] = system: velvetleaf (Abutilon theophrasti medicus); assay: as above; settings: 14th day after application; for herbicidal effect (index), Velvetleaf: foliage treatment, plants grown two weeks, 1,000 g active ingredient per hectare; for herbicidal effect, Velvetleaf: foliage treatment, 1,000 g active ingredient per 1 hectare, greenhouse
Method in brief: as §1

[5] = system: Japanese bulrush (Scirpus juncoides Roxb.); assay: Test Example 1: herbicidal effect by soil application to paddy field; settings: paddy field soil application; active ingredient 1,000 g per 1 hectare; wettable powder added dropwise to water surface the day after sowing; examined on the 21st day after application
Method in brief: (§2)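 Under greenhouse conditions, seeds sown on puddled paddy soil in 100 cm2 pots under 3 cm of standing water received the test compound; injury was assessed with a standard scoring scheme three weeks (day 21) after treatment.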

[6] = system: heartshape false pickerelweed (Monochoria vaginalis (Burm.f.) C.Presl); assay: as above; settings: paddy field soil application; active ingredient 1,000 g per 1 hectare; wettable powder added dropwise to water surface the day after sowing; examined on the 21st day after application
Method in brief: as §2

[7] = system: early watergrass (Echinochloa oryzicola Vasing); assay: as above; settings: paddy field soil application; active ingredient 1,000 g per 1 hectare; wettable powder added dropwise to water surface the day after sowing; examined on the 21st day after application
Method in brief: as §2

[8] = system: barnyardgrass (Echinochloa crus-galli (L.) P. Beauv. var. crus-galli); assay: Test Example 2: herbicidal effect by soil application to upland field; settings: soil surface spray, upland field soil, 1,000 g active ingredient per hectare, 21st day after application
Method in brief: (§3)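 Using a small sprayer, we treat the soil surface of pots just after sowing and covering seeds. The aqueous wettable powder supplies 1,000 g a.i./ha in 1,000 L water/ha; after greenhouse growth, injury is scored on day 21 using a standard rating.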

[9] = system: slender amaranth (Amaranthus viridis L.); assay: as above; settings: soil surface spray, upland field soil, 1,000 g active ingredient per hectare, 21st day after application
Method in brief: as §3

[10] = system: green foxtail (Setaria viridis (L.) P. Beauv.); assay: as above; settings: soil surface spray, upland field soil, 1,000 g active ingredient per hectare, 21st day after application
Method in brief: as §3

[11] = system: velvetleaf (Abutilon theophrasti medicus); assay: as above; settings: soil surface spray, upland field soil, 1,000 g active ingredient per hectare, 21st day after application
Method in brief: as §3

Compound | herbicidal effect (index), Barnyardgrass [1] | herbicidal effect (index), Slender Amaranth [2] | herbicidal effect (index), Green Foxtail [3] | herbicidal effect (index), Velvetleaf [4] | herbicidal effect, Scirpus juncoides Roxb. [5] | herbicidal effect, Monochoria vaginalis (Burm. f.) C. Presl [6] | herbicidal effect, Echinochloa oryzicola Vasing [7] | herbicidal effect (index), Barnyardgrass [8] | herbicidal effect (index), Slender Amaranth [9] | herbicidal effect (index), Green Foxtail [10] | herbicidal effect (index), Velvetleaf [11] | herbicidal effect, Barnyardgrass [1] | herbicidal effect, Slender Amaranth [2] | herbicidal effect, Green Foxtail [3] | herbicidal effect, Velvetleaf [4]
COc1ccc(-n2c(C(F)(F)F)ccc(C(=O)C3=C(O)CCCC3=O)c2=O)c(OC)c1 [I-99] | 5 (90% or more of herbicidal effect and crop phytotoxicity) | 5 (90% or more of herbicidal effect and crop phytotoxicity) | 4 (70 to less than 90% of herbicidal effect and crop phytotoxicity) | 5 (90% or more of herbicidal effect and crop phytotoxicity) | 5 (90% or more of herbicidal effect and crop phytotoxicity) | 5 (90% or more of herbicidal effect and crop phytotoxicity) | 5 (90% or more of herbicidal effect and crop phytotoxicity) | 5 (90% or more of herbicidal effect and crop phytotoxicity) | 5 (90% or more of herbicidal effect and crop phytotoxicity) | 4 (70 to less than 90% of herbicidal effect and crop phytotoxicity) | 5 (90% or more of herbicidal effect and crop phytotoxicity) | – | – | – | –
C=CCSCn1c(C(F)(F)F)ccc(C(=O)C2=C(O)CCCC2=O)c1=O [I-63] | 5 (90% or more of herbicidal effect and crop phytotoxicity) | 5 (90% or more of herbicidal effect and crop phytotoxicity) | 5 (90% or more of herbicidal effect and crop phytotoxicity) | 5 (90% or more of herbicidal effect and crop phytotoxicity) | 5 (90% or more of herbicidal effect and crop phytotoxicity) | 5 (90% or more of herbicidal effect and crop phytotoxicity) | 5 (90% or more of herbicidal effect and crop phytotoxicity) | 5 (90% or more of herbicidal effect and crop phytotoxicity) | 5 (90% or more of herbicidal effect and crop phytotoxicity) | 4 (70 to less than 90% of herbicidal effect and crop phytotoxicity) | 5 (90% or more of herbicidal effect and crop phytotoxicity) | – | – | – | –
COCCn1c(C(F)(F)F)ccc(C(=O)C2=C(O)C(C)(C)CCC2=O)c1=O [II-29] | – | – | – | – | 5 (90% or more of herbicidal effect and crop phytotoxicity) | 5 (90% or more of herbicidal effect and crop phytotoxicity) | 5 (90% or more of herbicidal effect and crop phytotoxicity) | 5 (90% or more of herbicidal effect and crop phytotoxicity) | 5 (90% or more of herbicidal effect and crop phytotoxicity) | 5 (90% or more of herbicidal effect and crop phytotoxicity) | 5 (90% or more of herbicidal effect and crop phytotoxicity) | 5 (90% or more of herbicidal effect and crop phytotoxicity) | 5 (90% or more of herbicidal effect and crop phytotoxicity) | 5 (90% or more of herbicidal effect and crop phytotoxicity) | 5 (90% or more of herbicidal effect and crop phytotoxicity)
COCC(C)n1c(C(F)(F)F)ccc(C(=O)C2=C(O)C3CCC(C3)C2=O)c1=O (stereo not shown) [III-21] | – | – | – | – | 5 (90% or more of herbicidal effect and crop phytotoxicity) | 5 (90% or more of herbicidal effect and crop phytotoxicity) | 5 (90% or more of herbicidal effect and crop phytotoxicity) | 5 (90% or more of herbicidal effect and crop phytotoxicity) | 5 (90% or more of herbicidal effect and crop phytotoxicity) | 5 (90% or more of herbicidal effect and crop phytotoxicity) | 5 (90% or more of herbicidal effect and crop phytotoxicity) | 5 (90% or more of herbicidal effect and crop phytotoxicity) | 5 (90% or more of herbicidal effect and crop phytotoxicity) | 5 (90% or more of herbicidal effect and crop phytotoxicity) | 5 (90% or more of herbicidal effect and crop phytotoxicity)
CCCCCCn1c(C(F)(F)F)ccc(C(=O)C2=C(O)C3CCC(C3)C2=O)c1=O (stereo not shown) [III-10] | – | – | – | – | 5 (90% or more of herbicidal effect and crop phytotoxicity) | 5 (90% or more of herbicidal effect and crop phytotoxicity) | 5 (90% or more of herbicidal effect and crop phytotoxicity) | 5 (90% or more of herbicidal effect and crop phytotoxicity) | 5 (90% or more of herbicidal effect and crop phytotoxicity) | 5 (90% or more of herbicidal effect and crop phytotoxicity) | 5 (90% or more of herbicidal effect and crop phytotoxicity) | 5 (90% or more of herbicidal effect and crop phytotoxicity) | 4 (70 to less than 90% of herbicidal effect and crop phytotoxicity) | 5 (90% or more of herbicidal effect and crop phytotoxicity) | 5 (90% or more of herbicidal effect and crop phytotoxicity)
N#Cc1cccc(Cn2c(C(F)(F)F)ccc(C(=O)C3=C(O)CCCC3=O)c2=O)c1 [I-118] | – | – | – | – | 5 (90% or more of herbicidal effect and crop phytotoxicity) | 5 (90% or more of herbicidal effect and crop phytotoxicity) | 5 (90% or more of herbicidal effect and crop phytotoxicity) | 5 (90% or more of herbicidal effect and crop phytotoxicity) | 5 (90% or more of herbicidal effect and crop phytotoxicity) | 4 (70 to less than 90% of herbicidal effect and crop phytotoxicity) | 5 (90% or more of herbicidal effect and crop phytotoxicity) | 5 (90% or more of herbicidal effect and crop phytotoxicity) | 5 (90% or more of herbicidal effect and crop phytotoxicity) | 5 (90% or more of herbicidal effect and crop phytotoxicity) | 5 (90% or more of herbicidal effect and crop phytotoxicity)
CCc1ccc(C(=O)C2=C(O)CCCC2=O)c(=O)n1-c1ccccc1 [I-230] | – | – | – | – | 5 (90% or more of herbicidal effect and crop phytotoxicity) | 5 (90% or more of herbicidal effect and crop phytotoxicity) | 5 (90% or more of herbicidal effect and crop phytotoxicity) | 4 (70 to less than 90% of herbicidal effect and crop phytotoxicity) | 5 (90% or more of herbicidal effect and crop phytotoxicity) | 5 (90% or more of herbicidal effect and crop phytotoxicity) | 5 (90% or more of herbicidal effect and crop phytotoxicity) | 5 (90% or more of herbicidal effect and crop phytotoxicity) | 5 (90% or more of herbicidal effect and crop phytotoxicity) | 4 (70 to less than 90% of herbicidal effect and crop phytotoxicity) | 5 (90% or more of herbicidal effect and crop phytotoxicity)
CNn1c(C(F)(F)F)ccc(C(=O)c2cnn(C)c2O)c1=O [IV-146] | – | – | – | – | 5 (90% or more of herbicidal effect and crop phytotoxicity) | 5 (90% or more of herbicidal effect and crop phytotoxicity) | 5 (90% or more of herbicidal effect and crop phytotoxicity) | 5 (90% or more of herbicidal effect and crop phytotoxicity) | 5 (90% or more of herbicidal effect and crop phytotoxicity) | 5 (90% or more of herbicidal effect and crop phytotoxicity) | 5 (90% or more of herbicidal effect and crop phytotoxicity) | 5 (90% or more of herbicidal effect and crop phytotoxicity) | 5 (90% or more of herbicidal effect and crop phytotoxicity) | 5 (90% or more of herbicidal effect and crop phytotoxicity) | 5 (90% or more of herbicidal effect and crop phytotoxicity)
